Test results: patent US9951064B2, “Azaindazole compounds as inhibitors of T790M containing EGFR mutants” (Genentech, Inc., priority 2013, dated 2018)
Read-outs that look alike come from different tables or passages of the source.

Experiments:
EGFR T790M L858R = biological target: T1, EGFR T790M L858R (Homo sapiens, UniProt P00533, L858R/T790M); experiment: EGFR T790M L858R biochemical assay (Caliper mobility shift); conditions: 5 μM ATP; apparent Ki (Morrison fit) converted by Cheng-Prusoff, Km of ATP 1.3 μM
T1 construct: purchased Life Technologies PV4879
Experimental: The exemplified compounds described herein were tested according to the assay below. The enzyme data reported in Tables 4-5 is generally a representative of multiple experiments.
Reactions proceed for 30 minutes at room temperature (22° C.) and are terminated with 80 mM 2,2′,2″,2′″-(ethane-1,2-diyldinitrilo)tetraacetic acid (EDTA). Product is detected using the Caliper mobility shift detection method where product and substrate are electrophoretically separated and measured.

[1] = biological target: T2, phosphor-EGFR in H1975(L585R/T790M) mutant EGFR expressing cells (Homo sapiens, UniProt P00533, L858R/T790M); experiment: H1975 pEGFR MSD cellular assay; assay type: cell-based; conditions: NCI-H1975 cells, serum starved, 1 hour compound incubation, pEGFR Tyr1068 MSD; read-out: HI975 pEGFR EC50
T2 construct: host or cells: NCI-H1975
Experimental: H1975 pEGFR MSD Cellular Assays
These assays are intended for determining cellular. […] (Meso Scale Discovery Catalog# N31CB-1).
NCI-H1975 (ATCC Catalog# CRL-5908) cells are maintained in medium containing RPMI 1640, 10% FBS, 4 mM L-Glutamine, 1% Penicillin-Streptomycin, and 4.5 g/L Glucose. All cell culture reagents were purchased from Invitrogen/Gibco. Cells are cultured at 37° C. at 5% CO2 and split as recommended by ATCC.
Cell Plating and Serum Starvation:
H1975 cells are harvested and plated into sterile cell culture treated 384 well plates (Greiner catalog #781091) at a density of 30,000 cells/well in 50 ul culture medium and placed in a 37° C. at 5% CO2 incubator for six hours. After six hours, culture medium is aspirated and replaced with serum-free culture medium. Cells are then incubated with the serum-free medium overnight at 37° C. and 5% CO2.
The following day, test compounds are serially diluted in dimethyl sulfoxide (DMSO) and added to cells in serum free medium (final DMSO concentration 0.5%). Assay plates are then incubated for 1 hour at 37° C. and 5% CO2. Following 1 hour of compound incubation cells are then lysed and processed as per the MSD pEGFR assay kit protocol. Cell lysates are added to assay plates pre-coated with antibodies against phosphorylated EGFR. Phosphorylated EGFR in samples are allowed to bind to the capture antibodies overnight at 4° C. The detection antibody (anti-total EGFR, labeled with an electrochemiluminescent SULFO-TAG) is added to the bound lysate and incubated for 1 hour at room temperature. The MSD Read Buffer is added such that when a voltage is applied to the plate electrodes, the labels bound to the electrode surface emit light. The MSD Sector Instrument measures the intensity of the light, and quantitatively measures the amount of phosphorylated-EGFR in the sample. Percent inhibition of EGFR phosphorylation by varying concentrations of test compounds is calculated relative to untreated controls. EC50 values are calculated using the 4 parameter logistic nonlinear regression dose-response model.

[2] = system: H1975 (EGFR T790M/L858R) cell proliferation; experiment: H1975 proliferation assay (Cell Titer-Glo); assay type: cell-based; conditions: NCI-H1975 cells, 72 hour incubation
Experimental: H1975 Proliferation Assays
All cell culture reagents were purchased from Invitrogen/Gibco. Cells are cultured at 37° C. at 5% CO2 and split as recommended by ATCC.

[3] = Homo sapiens, NCI-H1975, 72 h, read-out: H1975 antiproliferative EC50

T2 sequence (P00533 25-1210 T790M/L858R): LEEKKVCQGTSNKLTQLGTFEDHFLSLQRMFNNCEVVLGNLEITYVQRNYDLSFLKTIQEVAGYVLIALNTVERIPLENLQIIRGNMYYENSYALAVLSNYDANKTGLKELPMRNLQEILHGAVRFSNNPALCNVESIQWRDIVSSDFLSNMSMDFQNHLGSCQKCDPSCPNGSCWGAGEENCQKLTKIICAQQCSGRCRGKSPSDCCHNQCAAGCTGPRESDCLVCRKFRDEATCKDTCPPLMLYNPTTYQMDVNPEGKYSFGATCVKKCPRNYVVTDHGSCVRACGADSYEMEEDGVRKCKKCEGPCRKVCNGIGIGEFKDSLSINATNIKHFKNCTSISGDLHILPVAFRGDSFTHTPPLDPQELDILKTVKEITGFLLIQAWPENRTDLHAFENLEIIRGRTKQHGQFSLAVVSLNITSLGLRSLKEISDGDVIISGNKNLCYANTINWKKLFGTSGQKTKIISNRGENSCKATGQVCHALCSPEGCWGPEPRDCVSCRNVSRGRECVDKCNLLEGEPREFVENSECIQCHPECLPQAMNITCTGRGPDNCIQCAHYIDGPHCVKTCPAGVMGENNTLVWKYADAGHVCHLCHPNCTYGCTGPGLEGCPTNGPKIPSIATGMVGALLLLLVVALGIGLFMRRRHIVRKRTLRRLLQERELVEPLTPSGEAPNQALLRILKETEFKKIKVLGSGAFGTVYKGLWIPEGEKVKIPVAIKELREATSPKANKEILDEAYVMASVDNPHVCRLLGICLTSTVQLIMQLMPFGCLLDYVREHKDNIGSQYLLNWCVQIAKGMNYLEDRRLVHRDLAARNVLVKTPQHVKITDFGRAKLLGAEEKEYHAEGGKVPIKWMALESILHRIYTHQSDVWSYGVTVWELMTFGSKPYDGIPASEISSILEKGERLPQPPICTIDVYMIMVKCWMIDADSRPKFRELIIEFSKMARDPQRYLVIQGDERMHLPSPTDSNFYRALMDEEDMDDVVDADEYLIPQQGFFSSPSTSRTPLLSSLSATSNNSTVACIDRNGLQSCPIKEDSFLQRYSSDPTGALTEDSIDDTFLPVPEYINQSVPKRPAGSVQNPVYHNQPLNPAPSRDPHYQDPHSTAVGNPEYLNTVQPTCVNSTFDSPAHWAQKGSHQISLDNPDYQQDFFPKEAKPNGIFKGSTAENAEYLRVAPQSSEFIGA
T1 sequence (P00533 25-1210 T790M/L858R): as above

| SMILES | Ki (EGFR T790M L858R) [nM] | EC50 [1] [nM] | EC50 [2, 3] [nM] | EC50 ([2]; listed as 27, enantiomer 2, read-out: H1975 antiproliferative EC50) [nM] | EC50 ([2]; listed as 13, enantiomer 2, read-out: H1975 antiproliferative EC50) [nM] |
| --- | --- | --- | --- | --- | --- |
| CC(C)n1nc(N2CCOCC2)c2cnc(Nc3ccnc(N4CCC(O)C(C)(C)C4)n3)cc21 (stereo not drawn) [Example 34] | 2.6 | 111 | 1410 |  |  |
| CC(C)n1nc(N2CCN=C2O)c2cnc(Nc3ccnc(-c4cnn(S(=O)(=O)C5CC5)c4)n3)cc21 [Example 43, 1-(6-(2-(1-(cyclopropylsulfonyl)-1H-pyrazol-4-yl)pyrimidin-4-ylamino)-1-isopropyl-1H-pyrazolo[4,3-c]pyridin-3-yl)-4,5-dihydro-1H-imidazol-2-ol] | 0.9 | 37.5 | 237 |  |  |
| CC(C)n1nc(N2C[C@H](O)[C@@H](O)C2)c2cnc(Nc3ccnc(N4CCC(C)(O)CC4)n3)cc21 [Example 192, (3S,4S)-1-(6-(2-(4-Hydroxy-4-methylpiperidin-1-yl)pyrimidin-4-ylamino)-1-isopropyl-1H-pyrazolo[4,3-c]pyridin-3-yl)pyrrolidine-3,4-diol] |  |  | > 10000 |  |  |
| CC(C)n1nc(N2CC3(COC3)C2)c2cnc(Nc3ccnc(-c4cnn(CC5CC5)c4)n3)cc21 [Example 4, N-(2-(1-(Cyclopropylmethyl)-1H-pyrazol-4-yl)pyrimidin-4-yl)-1-isopropyl-3-(2-oxa-6-azaspiro[3.3]heptan-6-yl)-1H-pyrazolo[4,3-c]pyridin-6-amine] | 3 | 219 | 732 |  |  |
| CC(C)n1nc(N2C[C@@H](O)[C@@H](O)C2)c2cnc(Nc3ccnc(N4CCC(C)(O)CC4)n3)cc21 [Example 191, (±)-1-(6-(2-(4-Hydroxy-4-methylpiperidin-1-yl)pyrimidin-4-ylamino)-1-isopropyl-1H-pyrazolo[4,3-c]pyridin-3-yl)pyrrolidine-cis-3,4-diol] |  | 532 | > 10000 |  |  |
| CC(C)n1nc(N2CC[C@@H](CO)C2)c2cnc(Nc3ccnc(-c4cnn(S(=O)(=O)C5CC5)c4)n3)cc21 [Example 41, (R)-(1-(6-(2-(1-(cyclopropylsulfonyl)-1H-pyrazol-4-yl)pyrimidin-4-ylamino)-1-isopropyl-1H-pyrazolo[4,3-c]pyridin-3-yl)pyrrolidin-3-yl)methanol] | 1.3 | 9.4 | 162 |  |  |
| CCC(C)n1nc(N2CCN(C(=O)[C@@H](C)O)CC2)c2cnc(Nc3ccnc(-c4cnn(S(=O)(=O)C5CC5)c4)n3)cc21 (stereo partly drawn) [Example 188, (2R)-1-(4-(1-sec-Butyl-6-(2-(1-(cyclopropylsulfonyl)-1H-pyrazol-4-yl)pyrimidin-4-ylamino)-1H-pyrazolo[4,3-c]pyridin-3-yl)piperazin-1-yl)-2-hydroxypropan-1-one] |  | 64.3 | 1090 |  |  |
| CCC(C)n1nc(N2CCOCC2)c2cnc(Nc3ccnc(-c4cnn(S(=O)(=O)C5CC5)c4)n3)cc21 (single isomer, unassigned) [Example 27, enantiomer 1, 1-(sec-Butyl)-N-(2-(1-(cyclopropylsulfonyl)-1H-pyrazol-4-yl)pyrimidin-4-yl)-3-morpholino-1H-pyrazolo[4,3-c]pyridin-6-amine] |  |  | 610 |  |  |
| CCC(C)n1nc(N2CC(C(C)O)C2)c2cnc(Nc3ccnc(-c4cnn(S(=O)(=O)C5CC5)c4)n3)cc21 (stereo not drawn) [Example 190, 1-(1-(1-sec-Butyl-6-(2-(1-(cyclopropylsulfonyl)-1H-pyrazol-4-yl)pyrimidin-4-ylamino)-1H-pyrazolo[4,3-c]pyridin-3-yl)azetidin-3-yl)ethanol] |  | 44.6 | 537 |  |  |
| CCC(C)n1nc(N2CC(C(C)(C)O)C2)c2cnc(Nc3ccnc(-c4cnn(S(=O)(=O)C5CC5)c4)n3)cc21 (single isomer, unassigned) [Example 13, enantiomer 1, 2-(1-(1-(sec-Butyl)-6-((2-(1-(cyclopropylsulfonyl)-1H-pyrazol-4-yl)pyrimidin-4-yl)amino)-1H-pyrazolo[4,3-c]pyridin-3-yl)azetidin-3-yl)propan-2-ol] |  |  | 361 |  |  |
| CCC(C)n1nc(N2CC[C@@H](O)C2=O)c2cnc(Nc3ccnc(-c4cnn(S(=O)(=O)C5CC5)c4)n3)cc21 (stereo partly drawn) [Example 186, (3R)-1-(1-sec-Butyl-6-(2-(1-(cyclopropylsulfonyl)-1H-pyrazol-4-yl)pyrimidin-4-ylamino)-1H-pyrazolo[4,3-c]pyridin-3-yl)-3-hydroxypyrrolidin-2-one] |  | 74.9 | 586 |  |  |
| COC1CCN(c2nccc(Nc3cc4c(cn3)c(C(N)=O)nn4C(C)C)n2)CC1 [Example 11, 1-Isopropyl-6-((2-(4-methoxypiperidin-1-yl)pyrimidin-4-yl)amino)-1H-pyrazolo[4,3-c]pyridine-3-carboxamide] | 29.1 |  |  |  |  |
| CCC(C)n1nc(N2C[C@@H](CO)NC2=O)c2cnc(Nc3ccnc(-c4cnn(S(=O)(=O)C5CC5)c4)n3)cc21 (stereo partly drawn) [Example 189, (4S)-1-(1-sec-Butyl-6-(2-(1-(cyclopropylsulfonyl)-1H-pyrazol-4-yl)pyrimidin-4-ylamino)-1H-pyrazolo[4,3-c]pyridin-3-yl)-4-(hydroxymethyl)imidazolidin-2-one] |  | 474 | 5590 |  |  |
| CCC(C)n1nc(N2CC[C@H](O)C2=O)c2cnc(Nc3ccnc(-c4cnn(S(=O)(=O)C5CC5)c4)n3)cc21 (stereo partly drawn) [Example 185, (3S)-(1-sec-Butyl-6-(2-(1-(cyclopropylsulfonyl)-1H-pyrazol-4-yl)pyrimidin-4-ylamino)-1H-pyrazolo[4,3-c]pyridin-3-yl)-3-hydroxypyrrolidin-2-one] |  | 85.6 | 696 |  |  |
| CCC(C)n1nc(N2CCOCC2)c2cnc(Nc3ccnc(-c4cnn(S(=O)(=O)C5CC5)c4)n3)cc21 (single isomer, unassigned) [Example 27, enantiomer 2, 1-(sec-Butyl)-N-(2-(1-(cyclopropylsulfonyl)-1H-pyrazol-4-yl)pyrimidin-4-yl)-3-morpholino-1H-pyrazolo[4,3-c]pyridin-6-amine] |  |  |  | 1140 |  |
| CC(C)n1nc(F)c2cnc(Nc3ccnc(-c4cnn(S(=O)(=O)C5CC5)c4)n3)cc21 [Example 7, N-(2-(1-(Cyclopropylsulfonyl)-1H-pyrazol-4-yl)pyrimidin-4-yl)-3-fluoro-1-isopropyl-1H-pyrazolo[4,3-c]pyridin-6-amine] | 298 |  | > 10000 |  |  |
| CCC(C)n1nc(N2CCN(C(=O)[C@H](C)O)CC2)c2cnc(Nc3ccnc(-c4cnn(S(=O)(=O)C5CC5)c4)n3)cc21 (stereo partly drawn) [Example 187, (2S)-1-(4-(1-sec-Butyl-6-(2-(1-(cyclopropylsulfonyl)-1H-pyrazol-4-yl)pyrimidin-4-ylamino)-1H-pyrazolo[4,3-c]pyridin-3-yl)piperazin-1-yl)-2-hydroxypropan-1-one] |  | 75.5 | 813 |  |  |
| CCC(C)n1nc(N2CC(C(C)(C)O)C2)c2cnc(Nc3ccnc(-c4cnn(S(=O)(=O)C5CC5)c4)n3)cc21 (single isomer, unassigned) [Example 13, enantiomer 2, 2-(1-(1-(sec-Butyl)-6-((2-(1-(cyclopropylsulfonyl)-1H-pyrazol-4-yl)pyrimidin-4-yl)amino)-1H-pyrazolo[4,3-c]pyridin-3-yl)azetidin-3-yl)propan-2-ol] |  |  |  |  | 633 |
| CCC(C)n1nc(N2CC(N)C(F)(F)C2)c2cnc(Nc3ccnc(N4CCC(C)(O)CC4)n3)cc21 (stereo not drawn) [Example 184, 1-(4-(3-(4-Amino-3,3-difluoropyrrolidin-1-yl)-1-sec-butyl-1H-pyrazolo[4,3-c]pyridin-6-ylamino)pyrimidin-2-yl)-4-methylpiperidin-4-ol] |  | 94.9 | 761 |  |  |
